Experimental data as given in patent US4868203A, “Bacterial substance and pharmaceutical composition thereof” (Kabushikikaisha Ueno Seiyaku Oyo Kenkyujo, priority 1986, dated 1989).
Converted amounts (≈) assume the structure as drawn. “And” between values parts separate entries of the source, which are not always exact repeats. Identical values can stand only once. Like-named read-outs stand apart in the source and are kept apart here.

Experiments:
Pasteurella piscicida = experiment: microbe, parasite or virus in culture; assay type: cell-based
[1] = tested on: Xandomonas campestris FV Pruni 7855SMR; assay type: cell-based; details: Xandomonas campestris FV Pruni 7855SMR (bacterial spot of peach)
Procedure: (§1) The minimum growth inhibitory concentration (MIC) values of bacterial substance UFC-N11 to various kinds of bacteria determined according to the conventional method were measured in the conventional manner.

[2] = tested on: Ervinia carotovara subsp. carotovora NIAES 1393; assay type: cell-based; details: Ervinia carotovara NIAES 1393 (black leg of potatoes)
Procedure: as §1

[3] = tested on: Staphylococcus aureus 209-P; assay type: cell-based
Procedure: as §1

[4] = tested on: Pseudomonas syringae PV lachrymans NIAES 1316; assay type: cell-based; details: Pseudomonas syringae PV lachrymans NIAES 1316 (angular leaf spot of cucumber)
Procedure: as §1

[5] = tested on: Xandomonas campestris PV campestris NIAES 1152; assay type: cell-based; details: Xandomonas campestris PV campestris NIAES 1152 (black rot)
Procedure: as §1

Campylobacter fetus = assay type: cell-based
Procedure: as §1

Klebsiella pneumoniae = assay type: cell-based
Procedure: as §1

[6] = tested on: Pseudomonas syringae PV tabaci NIAES 1075; assay type: cell-based
Procedure: as §1

[7] = tested on: Pseudomonas syringae PV Mori NIAES 1020; assay type: cell-based; details: Pseudomonas syringae PV Mori NIAES 1020 (bacterial rugose)
Procedure: as §1

[8] = tested on: Escherichia coli NIHJ JC-2; assay type: cell-based
Procedure: as §1

Proteus vulgaris OX-19 = assay type: cell-based
Procedure: as §1

[9] = tested on: Enterobacter cloacae IID977; assay type: cell-based
Procedure: as §1

Salmonella typhimurium = assay type: cell-based
Procedure: as §1

Bacillus subtilis 6633 = assay type: cell-based
Procedure: as §1

[10] = tested on: Corynebacterium michiganence PV michiganene NIAES 1044; assay type: cell-based; details: Corynebacterium michiganence NIAES 1044 (bacterial canker of tomatoes)
Procedure: as §1

Campylobacter jejuni = assay type: cell-based
Procedure: as §1

Pseudomonas aeruginosa = assay type: cell-based
Procedure: as §1

[11] = tested on: Pseudomonas solanacearum NIAES 1418; assay type: cell-based; details: Pseudomonas solanacearum NIAES 1418 (wilt of solanum)
[12] = Absorbance by oral administration, absorption and secretion in yellowtail (Test Example 10); assay type: in vivo; details: oral 100 mg/kg
Procedure: To a cultured yellowtail, UFC-N11 was compulsorily oral-administered at the rate of 100 mg/kg per body weight of fish. The tissue samples were collected 3, 8, and 24 hours later respective in order to determine the concentrations in the tissues.

[13] = tested on: Xanthomonas campestris PV citri; details: for Prevention: sprayed 24 hours after inoculation, 14 days
[14] = tested on: Aeromonas hydrophila IAM108; experiment: Minimum growth inhibiting concentration, pathogenic bacteria of fish disease (Test Example 8); assay type: cell-based; details: Aeromonas hydrophila IAM108 (Aeromonas disease of carp)
Excerpt: (§2) The minimum growth inhibitory concentrations (MIC) of the bacterial substance UFC-N11 against various bacteria were according to conventional procedure the results are as follows: […]

Vibrio anguillarum K-3 = experiment: as above; assay type: cell-based; details: Vibrio anguillarum K-3 (Vibrio disease of young yellowtail)
Excerpt: as §2

Edwardssiella tarda 4-1 = experiment: as above; assay type: cell-based; details: Edwardssiella tarda 4-1 (Edwardsiellosis of eel)
Excerpt: as §2

[15] = tested on: Aeromonas salmonicida, MC7503; experiment: as above; assay type: cell-based; details: MC7503 (Furunculosis of salmonids)
Excerpt: as §2

Vibrio anguillarum 25-1 = experiment: as above; assay type: cell-based; details: Vibrio anguillarum 25-1 (Vibrio disease of sweetfish)
Excerpt: as §2

[16] = tested on: Flexibacter columnaris V-II; experiment: as above; assay type: cell-based; details: Flexibacter columnaris V-II (Columnaris disease of eel)
Excerpt: as §2

[17] = Storage life of steamed Chinese noodles (Test Example 5)
Procedure: After kneading for 10 minutes. the product was rolled and cut with cutting edge (#10) to give noodles. The resulting noodles were steamed at the temperature higher than 98° C. for 6 minutes, washed with water, packed in polyethylene packages (each weighing 40 g) and heated at 85° C. for 30 minutes. The obtained packages containing Chinese noodles (10 bags/group) were maintained at 30° C. and the change in appearance with time was observed and preservation effect was evaluated according to the following evaluation scale. The values shown in the following Table are averaged evaluation levels of degeneration.

[18] = tested on: Pasteurella piscicida KGP86041; assay type: cell-based
[19] = Storage life of kamaboko, rot-proof property (Test Example 4)
Procedure: Fish paste was prepared by adding NaCl (2.5%), chemical seasoning (0.8%), starch (5%) and ice water (10%) based on frozen surimi of walleye pollack (4 kg) and cutting by a silent cutter for 10 minutes. Predetermined amount of bacterial substance UFC-N11 based on the resulting fish paste (2 kg) was added and completely mixed in a small mixer for 5 minutes. About 100 g fish paste were enclosed with polyvinylidene chloride film (spread width:45 mm), boiled at 90° C. for 30 minutes, quenched, left overnight and then tested for rot-proof property.
The test was conducted as follows. As the complete package products, 10 pieces/group of kamaboko processed by casing method samples and, as the simplified package products, 10 pieces/group prepared by peeling off the casing under sterilized condition, cutting into 2 round slices (thickness: 10 mm) by a sterilized knife and placing in a sterilized plastic Petri dish. were placed in a thermostatic chamber at 30° C. and evaluated by macroscopically observation. The evaluation uses five-level scale shown below. The period until the average evaluation value of 1 is attained is defined as the storage life.

[20] = tested on: Pasteurella piscicida DM-85 strain; set-up: species or system yellowtail; details: in vivo

In the case of `CC=CC=CC=CC(=O)NC(CC(=O)NC(C(=O)C1C(=O)NC(=O)C1C)C(C)C)c1ccccc1` (centres unmarked) [UFC-N11], the MIC (Pasteurella piscicida) is reported as 0.31 µg/mL and 0.16 µg/mL, the antibacterial activity (Pasteurella piscicida) is reported as “excellent antibacterial activity” and the MIC [1] is reported as 0.1 µg/mL (≈ 0.209 µM). The MIC [2] was 6.25 µg/mL (≈ 13 µM), the MIC [3] was 1.56 µg/mL (≈ 3.25 µM) and the MIC [4] was 6.25 µg/mL (≈ 13 µM). For the same molecule, the MIC [5] was 0.1 µg/mL (≈ 0.209 µM), the MIC (Campylobacter fetus) was 1.56 µg/mL (≈ 3.25 µM) and the MIC (Klebsiella pneumoniae) was 12.5 µg/mL (≈ 26.1 µM). The MIC [6] was 12.5 µg/mL (≈ 26.1 µM), the MIC [7] was 25 µg/mL (≈ 52.1 µM) and the MIC [8] was 1.56 µg/mL (≈ 3.25 µM). It also gave an MIC (Proteus vulgaris OX-19) of 0.195 µg/mL (≈ 0.407 µM), an MIC [9] of 25 µg/mL (≈ 52.1 µM) and an MIC (Salmonella typhimurium) of 6.25 µg/mL (≈ 13 µM). The MIC (Bacillus subtilis 6633) was 0.39 µg/mL (≈ 0.813 µM), the MIC [10] was 6.25 µg/mL (≈ 13 µM) and the MIC (Campylobacter jejuni) was 0.78 µg/mL (≈ 1.63 µM). For the same molecule, the MIC (Pseudomonas aeruginosa) was 50 µg/mL (≈ 104 µM), the MIC [11] was 1.56 µg/mL (≈ 3.25 µM) and the absorption [12] was “absorbed in concentrations which were equal to or in excess of the anti-bacterial activity”. For the same molecule, the “Concentration in tissue, Kidney” value ([12]; 3 hr) was 6.55 µg/g, the “Concentration in tissue, Liver” value ([12]; 3 hr) was 8.79 µg/g and the “Concentration in tissue, Muscle” value ([12]; 3 hr) was 0.96 µg/g. For the same molecule, the “Concentration in tissue, Plasma” value ([12]; 3 hr) was 2.10 µg/mL, the “Concentration in tissue, Kidney” value ([12]; 8 hr) was 4.02 µg/g and the “Concentration in tissue, Liver” value ([12]; 8 hr) was 5.14 µg/g. The “Concentration in tissue, Muscle” value ([12]; 8 hr) was 1.12 µg/g, the “Concentration in tissue, Plasma” value ([12]; 8 hr) was 1.34 µg/mL and the “Concentration in tissue, Kidney” value ([12]; 24 hr) was 1.13 µg/g. For the same molecule, the “Concentration in tissue, Liver” value ([12]; 24 hr) was 1.36 µg/g, the “Concentration in tissue, Muscle” value ([12]; 24 hr) was less than 0.25 µg/g and the “Concentration in tissue, Plasma” value ([12]; 24 hr) was less than 0.125 µg/mL. For the same molecule, the Prevention ([13]; 20 ppm) was 26.70%, the Prevention ([13]; 40 ppm) was 33.9% and the Damage ([13]; in vivo) was “nil”. The MIC [14] was 5.0 µg/mL (≈ 10.4 µM), the MIC (Vibrio anguillarum K-3) was 2.5 µg/mL (≈ 5.21 µM) and the MIC (Edwardssiella tarda 4-1) was 2.5 µg/mL (≈ 5.21 µM). It also gave an MIC [15] of 1.25 µg/mL (≈ 2.61 µM), an MIC (Vibrio anguillarum 25-1) of 2.5 µg/mL (≈ 5.21 µM) and an MIC [16] of 0.63 µg/mL (≈ 1.31 µM). For the same molecule, the Storage life ([17]; 0.1 ppm, pH of product 9.39, 30° C.) was 6.0 days, the Storage life ([17]; 1.0 ppm, pH of product 9.41, 30° C.) was 8.1 days and the Storage life ([17]; 10 ppm, pH of product 9.40, 30° C.) was 10.0 days. The Storage life ([17]; 50 ppm, pH of product 9.38, 30° C.) was 16.0 days, the Storage life ([17]; 100 ppm, pH of product 9.41, 30° C.) was 20.0 days and the “preservability of the heated and steamed Chinese noodles” value ([17]; upon addition of UFC-N11) was “remarkably improved”. The MIC [18] was 0.16 µg/mL (≈ 0.334 µM), the “Storage life, Complete package” value ([19]; 0.01 ppm, pH 7.06, 30° C.) was 5.0 days and the “Storage life, simplified package” value ([19]; 0.01 ppm, pH 7.06, 30° C.) was 2.5 days. The “Storage life, Complete package” value ([19]; 0.1 ppm, pH 7.06, 30° C.) was 7.0 days, the “Storage life, simplified package” value ([19]; 0.1 ppm, pH 7.06, 30° C.) was 3.0 days and the “Storage life, Complete package” value ([19]; 1.0 ppm, pH 7.05, 30° C.) was 9.0 days. The “Storage life, simplified package” value ([19]; 1.0 ppm, pH 7.05, 30° C.) was 4.5 days, the “Storage life, Complete package” value ([19]; 10 ppm, pH 7.05, 30° C.) was 14.0 days and the “Storage life, simplified package” value ([19]; 10 ppm, pH 7.05, 30° C.) was 7.5 days. The “Storage life, Complete package” value ([19]; 50 ppm, pH 7.04, 30° C.) was 18.0 days, the “Storage life, simplified package” value ([19]; 50 ppm, pH 7.04, 30° C.) was 9.0 days and the “Storage life, Complete package” value ([19]; 100 ppm, pH 7.06, 30° C.) was 24.0 days. The “Storage life, simplified package” value ([19]; 100 ppm, pH 7.06, 30° C.) was 12.0 days and the therapeutic effect [20] was “excellent therapeutic effect”.
